# Data published in patent US8551727B2, “Gold nanoparticle based protease imaging probes and use thereof” (Korea Institute of Science and Technology, priority 2007, dated 2013).
# Columns and labels:
# [1] = system: cancerous tissue overexpressing MMP-2 (SCC7); experiment: Fluorescence of gold nanosensor in removed cancerous tissue; format: in vivo, C3H/HeN mouse
# Method: Depending on whether the MMP-2 inhibitor was injected into the cancerous tissue overexpressing MMP-2, the fluorescence of the MMP-2 gold nanosensor was observed.
# [2] = system: Invasive squamous cell carcinoma (SCC7); experiment: Real-time imaging of cancerous tissue in cancer animal models; format: in vivo, C3H/HeN mouse; conditions: 100 ul
# Method: Invasive squamous cell carcinoma (SCC7) was injected into C3H/HeN mouse to create a cancer animal model. For the cancerous tissue with a size of more than 5 mm, the MMP-2 gold nanosensor was injected into the cancerous tissue, to thereafter estimate the possibility of imaging the cancer cell.
# The invasive squamous cell carcinoma (SCC7) is known as a cancer cell expressing a great amount of MMP-2. The experiment was performed with respect to three animal test groups including a normal mouse having MMP-2 gold nanosensor (100 ul, 10 nM/mL) injected thereinto and a cancer mouse also having MMP-2 gold nanosensor (100 ul, 10 nM/mL) injected thereinto, and a cancer mouse having both MMP-2 gold sensor and MMP-2 inhibitor injected thereinto.
# [3] = Particle analysis of MMP selective gold nanosensor (TEM and light scattering); format: physicochemical
# Method: For the gold nanoparticle derivatives prepared in Example 1-3, the size of nanoparticle was measured using transmission electron microcopy (TEM) and light scattering (Brookhaven Instrument).
# MMP-2 = molecular target: T1, MMP-2 (Homo sapiens, UniProt P08253); experiment: Fluorescence exhibition due to enzyme degradation of gold nanosensor by activated MMP-2 (96-well, Kodak Image Station); format: biochemical; conditions: 37° C., 2 hours
# T1 sequence (P08253 110-660): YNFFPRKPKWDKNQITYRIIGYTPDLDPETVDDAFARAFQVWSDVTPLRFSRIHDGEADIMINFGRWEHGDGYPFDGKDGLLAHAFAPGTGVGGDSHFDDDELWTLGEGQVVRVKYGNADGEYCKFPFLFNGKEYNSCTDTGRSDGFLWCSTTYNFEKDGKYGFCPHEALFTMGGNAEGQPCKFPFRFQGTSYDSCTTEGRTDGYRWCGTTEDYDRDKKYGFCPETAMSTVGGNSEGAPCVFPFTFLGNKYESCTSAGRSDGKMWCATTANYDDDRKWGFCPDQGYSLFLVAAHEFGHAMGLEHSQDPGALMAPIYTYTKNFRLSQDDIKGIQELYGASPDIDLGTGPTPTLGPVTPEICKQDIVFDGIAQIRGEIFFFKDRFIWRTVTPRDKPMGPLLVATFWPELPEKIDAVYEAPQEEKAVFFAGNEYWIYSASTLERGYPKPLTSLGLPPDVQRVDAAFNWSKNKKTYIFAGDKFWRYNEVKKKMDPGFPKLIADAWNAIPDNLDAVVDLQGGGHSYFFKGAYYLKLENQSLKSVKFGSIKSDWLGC
# Method: (§1) A gold nanosensor was reacted respectively with MMP-2 and MMP-13 each activated in the 96-well, a scramble peptide (i.e., a peptide having the same amino acid contained structure but having different sequence so as not to act as a substrate with respect to a specific enzyme) and MMP-2/MMP-2 inhibitor at temperature of 37° C. for 2 hours, and thereafter a fluorescence exhibition due to the enzyme degradation was observed.
# (§2) First, in order to activate the MMP-2 and MMP-13, the MMPs were added into a TCNB mixture (containing 0.1M of tris, 5 mM of calcium chloride, 200 mM of NaCl and 0.1% of Brij) having 2.5 mmol/L of p-aminophenyl mercuric acid added thereto, so as to be reacted at temperature of 37° C. for 1 hour. The activated MMP-2 and MMP-13 were reacted with the gold nanosensor in 200 μL of mixture in each well at temperature of 37° C. for 2 hours, and thereafter the degree of the fluorescence was observed using Kodak Image Station 4000MM Digital Imaging System built in a […] (Charge Coupled Device) camera.
# The MMP gold nanosensor was used to quantitatively analyze the concentration of MMP-2 protease. In more detail, according to the same experimental way to that in Example 2-2, each of activated MMP-2s having concentrations of 0, 1.4, 3.5, 7 and 14 nmol/L, respectively, was added to the MMP-2 gold nanosensor to be reacted at temperature of 37° C. for 2 hours, and then the degree of the fluorescence was observed using the Kodak Image Station 4000MM Digital Imaging System.
# MMP-13 = MMP-13 (Homo sapiens, UniProt P45452); experiment: Fluorescence exhibition due to enzyme degradation of gold nanosensor by activated MMP-13 (96-well, Kodak Image Station); format: biochemical; conditions: state (c), 37° C., 2 hours
# Method: as §1, §2
substance,measurement,setting,value
Cy5.5-GPLGLFARC-Gold [MMP selective gold nanosensor],fluorescence in removed cancerous tissue treated with MMP-2 inhibitor,[1]; cancerous tissue (+inh),remarkably low fluorescence
same,fluorescence in removed cancerous tissue not treated with MMP-2 inhibitor,[1]; cancerous tissue (−inh),remarkably high fluorescence
same,fluorescence in mouse with cancer cell,"[2]; Au NP (SCC7 tumor), 10 nM/mL injected into cancerous tissue",emitted high fluorescence as time elapses
same,fluorescence in normal mouse,"[2]; normal mouse without the cancer cell, 10 nM/mL injected",did not exhibit fluorescence
same,size of nanoparticle (average),[3],approximately 20 nm
same,"fluorescence, MMP-2 added",MMP-2; MMP-2 added,bright fluorescence was exhibited
same,fluorescence versus MMP-2 concentration,"MMP-2; activated MMP-2 at 0, 1.4, 3.5, 7 and 14 nmol/L",increased in proportion to the concentration of the added MMP-2 enzyme
same,"fluorescence, MMP-2 not added","MMP-2; state (a), no MMP-2",fluorescence quenched
same,fluorescence in the reaction with MMP-2 inhibitor,"MMP-2; state (e), MMP-2/MMP-2 inhibitor",no fluorescence is emitted
same,fluorescence with respect to MMP-13,MMP-13,rarely exhibits fluorescence
